According to ChEMBL document CHEMBL1201862, “PubChem BioAssay data set” (2004):
Where “and” joins values, the source holds several entries; their conditions need not be identical. Identical values can stand only once.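 Method: 48-hour compound exposure of cells in 96-well plates, five concentrations, linear interpolation of endpoints. Abbreviation: GI50, concentration required for 50% inhibition of growth.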 Calls of active or inactive are those of the source. Rule as the data show it: active = GI50 up to about 1.1 µM and inactive = higher.

How the values were obtained:
Test in all cases: NCI anticancer screen, dose series, 48 h
BT-549 = system: BT-549
DMS-273 = system: DMS-273
DMS-114 = system: DMS-114
M19-MEL = system: M19-MEL
LXFL 529 = system: LXFL 529
RXF 631 = system: RXF 631
HOP-18 = system: HOP-18
DLD-1 = system: DLD-1
XF498 = system: XF498

Compound | GI50 (BT-549) | GI50 (DMS-273) | GI50 (DMS-114) | GI50 (M19-MEL) | GI50 (DLD-1) | also measured
COc1ccc2c(Cl)cc(NC(=S)Nc3ccccc3)nc2c1 | 39 µM (inactive) | – | – | – | – | –
N#CC1=C(N)N(c2ccccc2)C(c2ccccc2)C1(C#N)C#N (configuration not stated) | 16.7 µM (inactive) | – | – | – | – | –
CC(NC(=O)c1ccccc1)(C(=O)O)C(=O)O | > 100 µM (inactive) | – | – | – | – | –
CC(=O)O[C@@]12CO[C@@H]1C[C@@H](O)[C@@]1(C)C(=O)[C@H](O)C3=C(C)[C@@H](OC(=O)[C@H](O)[C@@H](NC(=O)c4ccccc4)c4ccccc4)C[C@@](O)([C@@H](OC(=O)c4ccccc4)C12)C3(C)C (some centres not stated) | 0.0243 µM (active) | < 0.01 µM (active) | < 0.01 µM (active) | < 0.01 µM (active) | – | –
CN1CCN(c2ccc([N+](=O)[O-])c3no[n+]([O-])c23)CC1 | 1.09 µM (active) | – | – | – | – | –
COc1ccc(C2c3cc4c(cc3OC(N3CCOCC3)C2C)OCO4)c(OC)c1 (configuration not stated) | 3.23 µM (inactive) | – | – | – | – | –
O=C(O)Cc1cccnc1 | > 100 µM (inactive) | – | – | – | – | –
N=C(N)N/N=C/c1c(-c2cc([N+](=O)[O-])c(Cl)cc2Cl)nc2sccn12 | 1.4 µM (inactive) and 1.46 µM (inactive) | – | – | – | – | –
O=Cc1[nH]c(=O)[nH]c(=O)c1CCl | > 100 µM (inactive) | – | – | – | – | –
CCCCCCCCCCCCCC(=O)CBr | 8.71 µM (inactive) | > 10 µM (inactive) | 3.9 µM (inactive) | 9.25 µM (inactive) | 11.7 µM (inactive) | GI50 (LXFL 529): 3.72 µM (inactive); GI50 (RXF 631): 16.3 µM (inactive); GI50 (HOP-18): 14.7 µM (inactive)
CC1C(O)Oc2cc3c(cc2C1c1ccccc1O)OCO3 (configuration not stated) | 34.9 µM (inactive) | – | – | – | – | –
O=[N+]([O-])c1cc([N+](=O)[O-])c(Nn2c3ccccc3c3ccccc32)c([N+](=O)[O-])c1 | 2.18 µM (inactive) | – | – | – | – | –
O=C(CC1S/C(=N\c2ccccc2Cl)NC1=O)Nc1ccc(Cl)cc1 (configuration not stated) | – | > 100 µM (inactive) | > 100 µM (inactive) | > 100 µM (inactive) | > 100 µM (inactive) | GI50 (LXFL 529): > 100 µM (inactive)
CCCNCC(O)CNc1ccc(NCC(O)CNCCC)c2c1C(=O)c1ccccc1C2=O (configuration not stated) | 2.14 µM (inactive) | – | – | – | – | –
Cc1nc2ccc(C(F)(F)F)cc2nc1NCc1ccc(Cl)c(Cl)c1 | 20.2 µM (inactive) | – | – | – | – | –
COC(=O)C1CC(=O)CCC1c1ccccc1 (configuration not stated) | – | > 100 µM (inactive) | > 100 µM (inactive) | > 100 µM (inactive) | > 100 µM (inactive) | GI50 (LXFL 529): > 100 µM (inactive); GI50 (HOP-18): > 100 µM (inactive)
CC(=O)c1ccc2c(c1)CC1(C2)Cc2ccc3c(c2C1=O)CCC3 (configuration not stated) | 27.9 µM (inactive) | – | – | – | – | –

Compound | GI50 (BT-549) | GI50 (DMS-273) | GI50 (DMS-114) | GI50 (M19-MEL) | GI50 (DLD-1) | also measured
CSc1nc(SC)c2c(C#N)n[nH]c2n1 | – | > 100 µM (inactive) | > 100 µM (inactive) | > 100 µM (inactive) | > 100 µM (inactive) | GI50 (XF498): > 100 µM (inactive); GI50 (RXF 631): > 100 µM (inactive)
C=C(Cl)/C(=C\Cl)CCC(Cl)C(C)C (configuration not stated) | > 100 µM (inactive) | – | – | – | – | –
CN(C)CCS/C(=N\c1ccccc1)n1cccc1 | – | 62.5 µM (inactive) | 26.3 µM (inactive) | 83.9 µM (inactive) | > 100 µM (inactive) | GI50 (LXFL 529): 42.7 µM (inactive); GI50 (XF498): > 100 µM (inactive); GI50 (HOP-18): > 100 µM (inactive)
CC(C)OC(=O)[C@@H]1OC(C)(C)O[C@H]1C(=O)OC(C)C | > 100 µM (inactive) | – | – | – | – | –
c1ccc2c(c1)nc1n2sc2nc3ccccc3n21 | > 100 µM (inactive) | – | – | – | – | –
Cc1c(-c2cc(-c3ccccc3)n[nH]c2=O)c2ccccc2n1C | – | > 100 µM (inactive) | > 100 µM (inactive) | > 100 µM (inactive) | > 100 µM (inactive) | GI50 (LXFL 529): > 100 µM (inactive); GI50 (XF498): > 100 µM (inactive); GI50 (HOP-18): 71.3 µM (inactive)
CCCCC(CCCC)=NNC(=S)SC | 42 µM (inactive) | – | – | – | – | –
CC1(C)CCC(=O)NC1CC(=O)CC1NC(=O)CCC1(C)C (configuration not stated) | > 100 µM (inactive) | – | – | – | – | –
O=C(NCCCCCCNC(=O)NC1OCC(O)C(O)C1O)NC1OCC(O)C(O)C1O (configuration not stated) | – | – | > 100 µM (inactive) | > 100 µM (inactive) | > 100 µM (inactive) | GI50 (LXFL 529): > 100 µM (inactive)
N#CCCN(CCC#N)c1ccc(C(/N=N/c2ccccc2)=N\c2ccccc2)cc1 | 13 µM (inactive) | – | – | – | – | –
O=C(CC(=O)C(=O)Nc1ccccc1)CC(c1ccccc1)c1c(O)c2ccccc2oc1=O (configuration not stated) | – | > 100 µM (inactive) | > 100 µM (inactive) | > 100 µM (inactive) | > 100 µM (inactive) | GI50 (RXF 631): > 100 µM (inactive); GI50 (HOP-18): > 100 µM (inactive)
COc1ccc2[nH]c3c(C)c4ncccc4c(C)c3c2c1 | > 10 µM (inactive) | – | – | – | – | –
Cn1c2ccccc2c2ccc3c(c21)C(=O)c1ccc2c4ccccc4n(C)c2c1C3=O | > 100 µM (inactive) | – | – | – | – | –
Cn1cnc(CCc2ccccc2)n1 | – | > 100 µM (inactive) | > 100 µM (inactive) | > 100 µM (inactive) | > 100 µM (inactive) | GI50 (LXFL 529): > 100 µM (inactive); GI50 (HOP-18): > 100 µM (inactive)
CC(C)c1cc(C(C)C)c(S(=O)(=O)NN)c(C(C)C)c1 | – | > 100 µM (inactive) | > 100 µM (inactive) | > 100 µM (inactive) | > 100 µM (inactive) | GI50 (HOP-18): > 100 µM (inactive)
